Results on 31 compounds are retold here after patent US6750228B1, “Aromatic sulfone hydroxamic acid metalloprotease inhibitor” (priority 1997, dated 2004).

What all share (assay): biochemical
One assay concerns the target T1, MMP-13 (Homo sapiens, UniProt P45452).
T1 construct: made in house; host or cells: baculovirus / insect cells
To be noted: read-out: MMP-13 IC50. The gist of the method: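 APMA- or trypsin-activated enzymes were preincubated with inhibitor for 5 min at room temperature, then the fluorogenic substrate MCA-Pro-Leu-Gly-Leu-Dpa-Ala-Arg-NH2 was added to a final 4 μM.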

The target in the next assay is T2, MMP-2 (Homo sapiens, UniProt P08253).
T2 construct: made in house; provided by Dr. Gregory Goldberg, Washington University
T2 sequence (P08253 110-660): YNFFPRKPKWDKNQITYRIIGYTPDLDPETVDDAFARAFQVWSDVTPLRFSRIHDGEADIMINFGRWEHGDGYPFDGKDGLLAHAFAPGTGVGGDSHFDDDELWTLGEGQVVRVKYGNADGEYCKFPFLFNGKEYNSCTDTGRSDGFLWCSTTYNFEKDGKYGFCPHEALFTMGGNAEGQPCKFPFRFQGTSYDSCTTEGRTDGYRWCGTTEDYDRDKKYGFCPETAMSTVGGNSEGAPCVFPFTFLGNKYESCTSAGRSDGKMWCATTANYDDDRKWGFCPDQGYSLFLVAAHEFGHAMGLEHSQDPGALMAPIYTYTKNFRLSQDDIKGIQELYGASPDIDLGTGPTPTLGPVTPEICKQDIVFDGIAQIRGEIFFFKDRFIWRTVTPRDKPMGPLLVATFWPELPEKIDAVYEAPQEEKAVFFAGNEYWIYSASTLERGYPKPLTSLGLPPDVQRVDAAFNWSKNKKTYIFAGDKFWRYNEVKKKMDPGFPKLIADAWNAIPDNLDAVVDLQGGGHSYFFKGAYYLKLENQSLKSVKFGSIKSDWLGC
To be noted: read-out: MMP-2 IC50. In outline: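 Assay buffer 100 mM Tris-HCl, 100 mM NaCl, 10 mM CaCl2, pH 7.5. Activated MMP + inhibitor, 5 min RT; then methoxycoumarin peptide substrate, 4 μM final. Readout fluorescence; IC50 calculated.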

The next assay has as its target T3, MMP-1 (Homo sapiens, UniProt P03956).
T3 construct: made in house; host or cells: transfected HT-1080 cells (provided by Dr. Harold Welgus, Washington University)
T3 sequence (P03956 100-469): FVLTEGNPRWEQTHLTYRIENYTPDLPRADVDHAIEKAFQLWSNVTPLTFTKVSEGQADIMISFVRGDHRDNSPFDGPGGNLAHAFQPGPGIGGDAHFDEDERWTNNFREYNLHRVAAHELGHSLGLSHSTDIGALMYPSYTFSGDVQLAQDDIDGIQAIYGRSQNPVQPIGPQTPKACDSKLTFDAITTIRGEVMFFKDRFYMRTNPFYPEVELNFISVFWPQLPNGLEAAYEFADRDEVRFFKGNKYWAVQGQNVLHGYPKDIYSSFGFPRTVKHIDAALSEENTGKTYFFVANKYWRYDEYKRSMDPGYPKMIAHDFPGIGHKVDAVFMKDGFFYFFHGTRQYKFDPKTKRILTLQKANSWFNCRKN
Conditions: read-out: MMP-1 IC50. In outline: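 Substrate MCA-PLGL-Dpa-AR-NH2 at 4 μM final; pH 7.5 Tris/NaCl/CaCl2 buffer with 0.05% polyethyleneglycol lauryl ether, 1% DMSO, room temperature. MMP-1 was expressed in transfected HT-1080 cells and APMA-activated.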

[1] abbreviates: recombinant human MMP-13, MCA peptide substrate 4 μM, pH 7.5, room temperature.
Where [2] appears, read: recombinant human MMP-2, MCA peptide substrate 4 μM, pH 7.5, room temperature.
Where [3] appears, read: recombinant human MMP-1, MCA peptide substrate 4 μM, pH 7.5, room temperature.

Like-named read-outs stand apart in the source and are kept apart here. Where only a bound is given, the exact number is not on record here.

As for `O=C(NO)C1(S(=O)(=O)c2ccc(Oc3ccc(OC(F)(F)F)cc3)cc2)CCN(S(=O)(=O)c2cccc(C(F)(F)F)c2)CC1` [Example 196], the IC50 on MMP-13 (setting [1]) is 1.6 nM; at MMP-2 (setting [2]), less than 0.1 nM; on MMP-1 (setting [3]), more than 10000 nM.

Turning to `O=C(Nc1ccncn1)C1CCN(c2ccc(S(=O)(=O)C3(C(=O)NO)CCOCC3)cc2)CC1` [Example 74], the figures for the IC50 on MMP-13 (setting [1]), at MMP-2 (setting [2]) and on MMP-1 (setting [3]) were 9 nM, 80 nM and more than 10000 nM, respectively.

With `O=C(NC1CCN(c2ccc(S(=O)(=O)C3(C(=O)NO)CCOCC3)cc2)CC1)c1ccc(OC(F)(F)F)cc1` [Example 752], the IC50 on MMP-13 (setting [1]) was 14.8 nM; on MMP-2 (setting [2]), 271 nM; on MMP-1 (setting [3]) it was more than 10000 nM.

In the case of `CCCCSC1CCN(c2ccc(S(=O)(=O)C3(C(=O)NO)CCOCC3)cc2)CC1` [Example 596], the results for the IC50 at MMP-13 (setting [1]), on MMP-2 (setting [2]) and at MMP-1 (setting [3]) were 1.1 nM, 10.6 nM and more than 10000 nM, respectively.

`O=C(NO)C1(S(=O)(=O)c2ccc(N3CCN(Cc4ccccc4)CC3)cc2)CCOCC1` [Example 538]: the IC50 at MMP-13 (setting [1]) is 80 nM; at MMP-2 (setting [2]), 370 nM; on MMP-1 (setting [3]) it was more than 10000 nM.

For the compound `O=C(C1CCN(c2ccc(S(=O)(=O)C3(C(=O)NO)CCOCC3)cc2)CC1)N1CCN(c2ncccc2C(F)(F)F)CC1` [Example 33], the values for the IC50 at MMP-13, at MMP-2 and on MMP-1 were 20 nM, 4500 nM and more than 10000 nM, respectively.

For `COc1c(F)c(F)c(COC2CCN(c3ccc(S(=O)(=O)C4(C(=O)NO)CCOCC4)cc3)CC2)c(F)c1F` [Example 561], the IC50 on MMP-13 (setting [1]) was 6 nM; on MMP-2 (setting [2]), 500 nM; on MMP-1 (setting [3]) it was more than 10000 nM.

Turning to `COCCN1CCC(C(=O)NO)(S(=O)(=O)c2ccc(N3CCC(OCc4ccc(F)cc4C(F)(F)F)CC3)cc2)CC1` [Example 447], the IC50 was 23.9 nM at MMP-13 (setting [1]), 155 nM on MMP-2 (setting [2]) and more than 10000 nM at MMP-1 (setting [3]).

For the compound `O=C(NO)C1(S(=O)(=O)c2ccc(Oc3ccc(OC(F)(F)F)cc3)cc2)CCN(C2=NCCN2)CC1` [Example 413], the IC50 on MMP-13 (setting [1]) stood at 1.1 nM; on MMP-2 (setting [2]) it was 0.3 nM; on MMP-1 (setting [3]), 8000 nM.

For `CCCCOC1CCN(c2ccc(S(=O)(=O)C3(C(=O)NO)CCN(C(=O)OC(C)(C)C)CC3)cc2)CC1` [Example 442], the IC50 at MMP-13 (setting [1]) is 10 nM; on MMP-2 (setting [2]) it was 211 nM; on MMP-1 (setting [3]), more than 10000 nM.

Turning to `O=C(NO)C1(S(=O)(=O)c2ccc(N3CCC(CCOCc4ccc(Cl)c(Cl)c4)CC3)cc2)CCOCC1` [Example 502], the IC50 at MMP-13 (setting [1]) was 14 nM; on MMP-2 (setting [2]) it was 63 nM; at MMP-1 (setting [3]), more than 10000 nM.

As to `O=C(NO)C1(S(=O)(=O)c2ccc(N3CCC(SC4CCCCC4)CC3)cc2)CCOCC1` [Example 634], the figures for the IC50 at MMP-13 (setting [1]), on MMP-2 (setting [2]) and at MMP-1 were 4.4 nM, 60.7 nM and more than 10000 nM, respectively.

For the compound `COc1ccc(NC(=O)C2CCN(c3ccc(S(=O)(=O)C4(C(=O)NO)CCOCC4)cc3)CC2)cc1` [Example 76], the IC50 on MMP-13 (setting [1]) is 9 nM; at MMP-2 (setting [2]), 250 nM; at MMP-1 (setting [3]), more than 10000 nM.

On to `CN(C)CCN(C)CC(=O)N1CCC(C(=O)NO)(S(=O)(=O)c2ccc(Oc3ccc(C(F)(F)F)cc3)cc2)CC1` [Example 323], for which the IC50 at MMP-13 (setting [1]) was 1.3 nM; on MMP-2 (setting [2]), 0.4 nM; at MMP-1 (setting [3]), more than 10000 nM.

For `O=C(NO)C1(S(=O)(=O)c2ccc(N3CCC(Sc4ccccc4)CC3)cc2)CCN(C2CC2)CC1` [Example 389], the IC50 at MMP-13 (setting [1]) is 1.7 nM; at MMP-2 (setting [2]) it was 16.1 nM; on MMP-1 (setting [3]) it was more than 10000 nM.

For the compound `O=C(NO)C1(S(=O)(=O)c2ccc(N3CCC(Oc4ccc([N+](=O)[O-])c(C(F)(F)F)c4)CC3)cc2)CCOCC1` [Example 569], the values for the IC50 at MMP-13 (setting [1]), on MMP-2 (setting [2]) and on MMP-1 (setting [3]) were 16.9 nM, 87.7 nM and more than 10000 nM, respectively.

Regarding `CCCCC(=O)C1CCN(c2ccc(S(=O)(=O)C3(C(=O)NO)CCOCC3)cc2)CC1` [Example 757], the figures for the IC50 on MMP-13 (setting [1]), on MMP-2 (setting [2]) and on MMP-1 (setting [3]) were 3.3 nM, 28.8 nM and more than 10000 nM, respectively.

As to `O=C(c1ccco1)N1CCC(C(=O)NO)(S(=O)(=O)c2ccc(N3CCC(OCc4ccc(Cl)cc4)CC3)cc2)CC1` [Example 432], the values for the IC50 at MMP-13 (setting [1]), on MMP-2 (setting [2]) and at MMP-1 (setting [3]) were 13.9 nM, 100 nM and more than 10000 nM, respectively.

As for `CCOc1ccc(C(=O)C2CCN(c3ccc(S(=O)(=O)C4(C(=O)NO)CCOCC4)cc3)CC2)cc1` [Example 791], the IC50 at MMP-13 (setting [1]) was 2 nM; at MMP-2 (setting [2]) it was 700 nM; at MMP-1 (setting [3]), more than 10000 nM.

On to `Cc1ccc(C(=O)C2CCN(c3ccc(S(=O)(=O)C4(C(=O)NO)CCN(C5CC5)CC4)cc3)CC2)cc1C` [Example 383], for which the IC50 was 3 nM at MMP-13 (setting [1]), 700 nM at MMP-2 (setting [2]) and more than 10000 nM on MMP-1 (setting [3]).

With `COc1ccc(C(=O)C2CCN(c3ccc(S(=O)(=O)C4(C(=O)NO)CCOCC4)cc3)CC2)cc1` [Example 647], the figures for the IC50 on MMP-13 (setting [1]), at MMP-2 (setting [2]) and at MMP-1 (setting [3]) were 6 nM, 160 nM and more than 10000 nM, respectively.

As for `CC1CC(C)CN(C(=O)C2CCN(c3ccc(S(=O)(=O)C4(C(=O)NO)CCN(C(=O)CN5CCN(CCN6CCOCC6)CC5)CC4)cc3)CC2)C1` (stereo not drawn) [Example 306], the IC50 was 60 nM at MMP-13 (setting [1]), more than 10000 nM on MMP-2 (setting [2]) and more than 10000 nM on MMP-1 (setting [3]).

In the case of `O=C(NO)C1(S(=O)(=O)c2ccc(N3CCCC(COCc4ccc(F)cc4)C3)cc2)CCOCC1` (stereo not drawn) [Example 505], the results for the IC50 on MMP-13 (setting [1]), on MMP-2 (setting [2]) and on MMP-1 (setting [3]) were 14 nM, 72 nM and more than 10000 nM, respectively.

For `O=CN1CCC(C(=O)NO)(S(=O)(=O)c2ccc(Oc3ccc(OC(F)(F)F)cc3)cc2)CC1` [Example 416], the IC50 on MMP-13 (setting [1]) came out at 0.4 nM; at MMP-2 (setting [2]) it was 0.2 nM; on MMP-1 (setting [3]), 3000 nM.

As to `Cc1ccc(OC2CCN(c3ccc(S(=O)(=O)C4(C(=O)NO)CCOCC4)cc3)CC2)cc1C` [Example 637], the IC50 on MMP-13 (setting [1]) is 3.8 nM; at MMP-2 (setting [2]), 22 nM; on MMP-1 (setting [3]), more than 10000 nM.

Turning to `COc1cc2c(cc1OC)CN(c1ccc(S(=O)(=O)C3(C(=O)NO)CCN(C4CC4)CC3)cc1)CC2` [Example 464], the IC50 is 120 nM on MMP-13 (setting [1]), 400 nM at MMP-2 (setting [2]) and more than 10000 nM at MMP-1 (setting [3]).

`O=C(c1ccco1)N1CCN(c2ccc(S(=O)(=O)C3(C(=O)NO)CCOCC3)cc2)CC1` [Example 537]: the IC50 was 70 nM on MMP-13 (setting [1]), 55 nM on MMP-2 (setting [2]) and 5200 nM on MMP-1 (setting [3]).

In the case of `O=C(NO)C1(S(=O)(=O)c2ccc(N3CCC(Oc4ccc([N+](=O)[O-])c(F)c4)CC3)cc2)CCOCC1` [Example 548], the IC50 at MMP-13 (setting [1]) is 40 nM; on MMP-2 (setting [2]), 800 nM; at MMP-1 (setting [3]), more than 10000 nM.

In the case of `CCOC(=O)CN1CCN(c2ccc(S(=O)(=O)C3(C(=O)NO)CCOCC3)cc2)CC1` [Example 621], the results for the IC50 at MMP-13 (setting [1]), on MMP-2 (setting [2]) and on MMP-1 (setting [3]) were 120 nM, 1500 nM and more than 10000 nM, respectively.

For the compound `O=C(NO)C1(S(=O)(=O)c2ccc(N3CCC(n4c(=O)[nH]c5ccccc54)CC3)cc2)CCOCC1` [Example 211], the IC50 is 11.4 nM at MMP-13 (setting [1]), 1200 nM at MMP-2 (setting [2]) and more than 10000 nM on MMP-1.

For `O=C(NO)C1(S(=O)(=O)c2ccc(N3CCN(c4ccc(F)cc4F)CC3)cc2)CCOCC1` [Example 87], the IC50 on MMP-13 (setting [1]) was 4 nM; on MMP-2 (setting [2]), 15.5 nM; on MMP-1 (setting [3]) it was more than 10000 nM.

For orientation: IC50 means the concentration that inhibits the measured activity by half.
